Like-named read-outs stand apart in the source and are kept apart here.

This is an account of results in patent US5654179A, “Nucleic acid preparation methods” (HRI Research, Inc., priority 1994, dated 1997).

The subject of test [1] is DNA-cytoplasmic DNA polymerase complex. The note with it: cited from earlier work.
For test [2], the system named is DNA ligase from mouse erythroleukemia (MEL) cells. The note with it: dilution, dialysis, or sucrose gradient centrifugation of cell-free extracts; cited from earlier work.
Another test concerns T4 DNA ligase. The note with it: dilution, dialysis, or sucrose gradient centrifugation of cell-free extracts; cited from earlier work.
In test [3] the test system is NAD-dependent DNA ligase from E. coli. The note with it: cited from earlier work.
Another test has as its system DNA ligase. The conditions noted are these: cited from earlier work.
Test [4] concerns reverse transcriptase purified from arian myeloblastosis virus. The note with it: cited from earlier work.
Test [5] deals with Taq polymerase. The note with it: cited from earlier work.
Test [6] deals with virion-associated reverse transcriptase (RTase) of murine leukemia virus (MuLV). The note with it: cited from earlier work.
For test [7] the following is noted: in the presence of an anion (such as HCO3^-); cited from earlier work.
In test [8] the test system is Taq polymerase. Briefly: PCR inhibition, SK38/39 system, 115-mer product on ethidium bromide gel or autoradiograph. The class given is biochemical. The procedure:
(§1) Generally, PCR was carried out using 175-200 μM dNTPS (deoxyribonucleoside 5'-triphosphates) and 0.5 to 1.0 μM primers. Five units/100 μl of Taq polymerase were used. PCR reactions were overlaid with 30-100 μl light mineral oil. A typical PCR cycle for HIV amplification using a Perkin-Elmer Cetus DNA Thermal Cycler (Part No. N8010150) was: denaturation at 95° C. for 30 seconds; annealing at 55° C. for 30 seconds; and extension at 72° C. for 1 minute. PCR cycles were normally carried out in this manner for 35 cycles followed by 7 minutes at 72° C.
In other cases, amplification of HIV sequences was performed using primer pair SK-38 (SEQ ID NO:5) and SK-39 (SEQ ID NO:6) and 115-mer (SEQ ID NO:7) as target to produce a 115-mer product.
Where agarose gel electrophoresis was used, the PCR products were fractionated by electrophoresis through a 3% Nusieve/1% agarose gel in TBE buffer. Electrophoresis was typically carried out in a constant voltage of 8-10 V/cm. Following agarose gel electrophoresis, individual bands were, in most cases, visualized by ethidium bromide staining. This involved staining the agarose gel with 1 μg/ml ethidium bromide in TBE for 30 minutes followed by destaining the agarose gel with TBE for 30 minutes.
The chemical reaction was performed as follows. Two aliquots (30 mg/aliquot) of sodium borohydride (NaBH4) were added at ten minute intervals to 1 ml of 200 μM hematin (Sigma) in 1M Tris (pH 8.0) under argon in the dark. The pH was adjusted to 6.0 between additions. At the end of the reaction (20 minutes) the pH was adjusted to 1.0 and then neutralized to pH 7.0. Six aliquots (5 μl) of the product of the reaction corresponding to different amounts of reacted hematin (37.5 μM, 7.5 μM, 1.5 μM, 0.3 μM, 0.06 μM, 0.012 μM) were added to standard (20 μl) PCR reactions in different tubes using the SK38/39 system (see above). Three standard control reactions were run in separate tubes: i) a no nucleic acid target control; ii) a no primer control; and iii) a positive control (no hematin). In addition, unreacted hematin was added to four different tubes in different amounts (50 μM, 5 μM, 0.5 μM, and 0.05 μM). PCR was carried out for 30 cycles. The PCR products were thereafter electrophoresed (agarose) and visualized with ethidium bromide staining (FIG. 2A, lanes 1-13). The three above-named control reactions were electrophoresed in lanes 1, 2 and 3, respectively. […] The unreacted hematin tubes (lanes 4-7) show no product until hematin is present at a very low concentration (0.05 μM, lane 7), at which point product is evident. […] Indeed, product is evident where 1.5 μM reacted hematin or less was present. […] A score (i.e., % maximum intensity of a positive control) was given to each band. An OD unit of 1.0 corresponds to 100% of maximum intensity. After examination of a plot of the estimated OD units to the concentration of hematin (expressed in the log scale) in these PCR reactions, it is clear that approximately a thirty-fold concentration difference was achieved (reacted to unreacted).
The photochemical reaction was performed as follows. Stock biliverdin (Sigma, 5 mM) was diluted in solution (50 mM Tris pH 7.8) to a final concentration of 200 μM. Two aliquots (300 μl) were then made. One aliquot was left unreacted. The other aliquot was exposed to ultraviolet radiation from an HRI-100 for 16 hours using the industry standard, F8T5BL hot cathode dual bipin lamps. Thereafter, both the unirradiated and irradiated materials were added (5 μl) to standard (20 μl) PCR reactions in different tubes using the SK38/39 system (see above) and 10^9 copies of 115-mer target. Three standard control reactions were run in separate tubes: i) a no nucleic acid target control; ii) a positive control (no biliverdin); and iii) a no Taq control. PCR was carried out for thirty (30) cycles. The PCR products were thereafter electrophoresed (agarose) and visualized with ethidium bromide staining (FIG. 3A, lanes 1-5). […]

Test [9] relates to Taq polymerase. Briefly: PCR from boiled whole blood with or without transferrin. Format: biochemical. The conditions noted are these: with transferrin; without transferrin inhibited above 1 μl. The procedure: Experiment 1. Whole blood (200 μl) was boiled for 10 minutes then briefly centrifuged to precipitate the solid coagulated mass which formed. The supernatant layer was then used directly for PCR amplification (1, 2, 3, 4, or 5 μl), either with or without transferrin. […] An aliquot of 5 μl whole blood processed by Mode III gave a very intense signal, indicating the advantage of the method over the boiling method, which provided no signal at all with a 5 μl aliquot.

The subject of test [10] is Taq polymerase. Format: biochemical. The procedure: as §1
In some instances below, amplification of human histocompatibility (HLA) Class II genes was performed using primer pair GH26 (SEQ ID NO:2) and GH27 (SEQ ID NO:3) and human placental DNA to produce a 242-mer product (SEQ ID NO: 4). These primers and other primers are described in PCR Protocols: A Guide To Methods and Applications, Innis, M. A. et al. eds., pp. 261-271 (1990)).
Whole blood was prepared according to Mode III (see FIG. 1). Whole blood samples (100 μl) were lysed with protease K (0.5 mg/ml, 55° C. for 1 hour). The enzyme was inactivated by heating (95°-100°C., 10 minutes). Four sets of reactions were then set up involving the addition of interfering reagent to the protease lysate: 1) transferrin with 10 mM sodium bicarbonate; 2) transferrin with 20 mM sodium bicarbonate; 3) serum albumin with 10 mM sodium bicarbonate; and 4) serum albumin with no cofactor. These reaction were performed at room temperature for thirty minutes using a concentration range for transferrin and serum albumin (10, 25, 50, 75, 100, 150, 200 and 250 μg per 20 μl PCR rxn). PCR was then set up using the primer pair GH26/GH27 to produce a 242-mer product (see above). Two standard control reactions were run in separate tubes: i) a no nucleic acid target control; and 2) a positive control (human placental DNA). Four additional control lanes were run: 1) no inhibitor treatment (two lanes); 2) 10 mM sodium bicarbonate only (one lane); and 3) 50 μg transferrin only (one lane); and 4) transferrin with 10 mM sodium bicarbonate (two lanes). PCR was carried out for 35 cycles. The PCR products were thereafter electrophoresed (agarose) and visualized with ethidium bromide staining. The two above-named control reactions were electrophoresed in lanes 9 and 10 of FIG. 16A, respectively, as well as lanes 17 and 18 of FIG. 16B, respectively. In FIG. 16C, the positive control is in lane 1 and the negative control is in lane 2.
Whole blood was prepared according to Mode III (see FIG. 1). Whole blood samples (20 μl) were lysed with protease K (0.5 mg/ml, 55° C. for 1 hour). The enzyme was inactivated by heating (95°-100° C., 10 minutes). Reactions were then set up involving the addition of bovine transferrin or serum albumin with various cofactors, including bicarbonate ion, azide ion, thiocyanate ion, cyanate ion, oxalate ion, malonate ion, glycinate ion, and thioglycolate ion. These reaction were performed at room temperature for thirty minutes. PCR was then set up using the using primer pair GH26/GH27 to produce a 242-mer product (see above). PCR was carried out for 35 cycles. The PCR products were thereafter electrophoresed (agarose) and visualized with ethidium bromide staining.

Test [11] can be described thus: Transferrin binding of heme. From the text:
This is lower than that expected from the molar ratio for transferrin to iron binding of 0.5. Second, there is the question of the central metal ion: the central metal iron was found not to be required for the transferrin-mediated phenomenon of the present invention.

Test [12] concerns Taq polymerase. Briefly: HIV PCR after inhibitor treatment of whole blood lysate. Format: biochemical. The conditions noted are these: Mode III, transferrin with sodium bicarbonate. The procedure: The enzyme was inactivated by heating (95°-100° C., 10 minutes).

Turning to hemin, in [1], the “complete inhibition of the formation of DNA-enzyme complex” value was no less than 12 µM; the “mode of inhibition of DNA synthesis” value was “competitive with respect to template and noncompetitive with respect to substrate”. Besides, in test [2], the “reversibility of inhibition of DNA ligase” value is given as “not reversible”. Moreover, the “reversibility of inhibition of T4 DNA ligase” value in the test with T4 DNA ligase was “not reversible”. Moreover, in [3], the “concentration up to which E. coli DNA ligase was not inhibited” value is “up to 150 μM”. Further, in the test on DNA ligase, the “concentration that does not affect DNA ligase activity or DNA substrate integrity” value is no more than 4 µM. For the same substance, on DNA ligase (pre-incubation, depending on the source of the DNA ligase, read-out: half-maximal inhibition of DNA ligase), the IC50 was 25 to 100 µM. Further, the “inhibition of reverse transcriptase from myeloblastosis virus” value in test [4] is “does not inhibit”. Moreover, the “inhibition of PCR / Taq polymerase” value in the test with Taq polymerase [5] is on record as “inhibit”. Further, the “reversibility of inhibition of MuLV RTase” value in test [6] is given as “reversible inhibitor”.

“transferrin: blood serum component, an iron transport protein”: in [7], the “capacity to take up iron atoms” value was 2 iron atoms per molecule. Besides, the “PCR product in presence of protoporphyrin” value in the test on Taq polymerase [8] is reported as “product is visible”. The “aliquot of boiled whole blood supernatant up to which signal was provided” value in the test on Taq polymerase [9] was no more than 3 µL. Further, the PCR product result was “No product is visible” in the test on Taq polymerase [10] (10 μg per 20 μl PCR rxn, with cofactor); “faint product band” in the test with Taq polymerase [10] (25 μg per 20 μl PCR rxn, with cofactor); “No product is visible” in the test with Taq polymerase [10] (50 μg transferrin alone); “Strong product bands” in the test on Taq polymerase [10] (50 μg transferrin with 10 mM cofactor); “not as apparent” with Taq polymerase [10] (higher concentration of the cofactor (20 mM sodium bicarbonate), lanes 11-18); “Strong product bands” in the test with Taq polymerase [10] (higher concentrations (50 to 250 μg, lanes 3-8), with cofactor). In addition, in test [11], the “molar ratio of transferrin to heme at which transferrin is most effective in binding heme” value is recorded as less than 0.27. Further, in the test with Taq polymerase [12], the amplification specificity entry was “improves the specificity of the reaction”.
